According to patent US20220169654A1, “New Organic Compounds” (Servier Pharmaceuticals LLC, priority 2020, published 2022):
pIC50: −log10 of the molar value.

Assays:
[1] = target: T1, MAT2A homodimer (Homo sapiens, UniProt P31153); experiment: MAT2A inhibition (biochemical, liberated phosphate, PiColorLock Gold); settings: recombinant MAT2A homodimer; IC50 bin with Max Inh.; read-out: Enzyme Inhibition Bin
T1 construct: inferred from Ni sepharose purification with imidazole elution; made in house; host or cells: Sf9 insect cells, baculovirus (Bac to Bac, pFASTBAC1)
Method: Mat2A protein was expressed by recombinant baculovirus in SF9 infected cells using the Bac to Bac system cloned into the pFASTBAC1 vector (Invitrogen, Carlsbad, Calif.). Recombinant MAT2A was isolated from the cell lysate of 150 g of infected cells using HP Ni sepharose column chromatography. Recombinant MAT2A homodimer was eluted with 250 and 500 mM imidazole, and fractions containing MAT2A were identified by sodium dodecyl sulfate polyacrylamide gel electrophoresis and pooled.
For determination of the inhibitory potency of compounds against the MAT2A homodimer, protein was diluted to 4 μg/mL in assay buffer (50 mM Tris, pH 8.0, 50 mM KCl, 15 mM MgCl2, 0.3 mM EDTA, 0.005% [w/v] bovine serum albumin [BSA]). Test compound was prepared in 100% dimethyl sulfoxide (DMSO) at 50× the desired final concentration. A 1 μL volume of compound dilution was added to 40 μL of enzyme dilution and the mixture was allowed to equilibrate for 60 minutes at 25° C. The enzymatic assay was initiated by the addition of 10 μL of substrate mix (500 μM ATP, pH 7.0, 400 μM L-methionine in 1× assay buffer), and the mixture was incubated for a further 60 minutes at 25° C. The reaction was halted and the liberated phosphate released by the enzyme in stoichiometric amounts by the production of S-adenosyl methionine (SAM) was measured using the PiColorLock Gold kit (Innova Biosciences, UK). Absolute product amounts were determined by comparison to a standard curve of potassium phosphate buffer, pH 8.0. The compounds were also tested in a secondary assay utilizing 1 μg/mL MAT2A and incubated for 5 hours at 25° C. before halting and processing as above.
Specific compounds disclosed herein were tested in the foregoing assay and they were determined to inhibit MAT2A with an IC50. See, Table 1 below.

[2] = system: SAM in HCT116 human colon carcinoma cell line with MTAP gene deleted (MTAP −/−); experiment: Cellular assay of target engagement (SAM), LC-MS/MS, 72 hrs; assay type: cell-based; settings: HCT-116, IC50 bin with Max Inh., read-out: Cell 72 h SAM Inhibition (MTAP −/−)
Method: Measurement of MAT2A activity in cells was made by direct quantitation of the abundance of the product of its enzymatic activity, SAM. Cancer cells were treated with candidate MAT2A inhibitors for a suitable incubation period, and the cells were then lysed using a reagent which quenched any further enzyme activity. Soluble metabolites including SAM were collected and SAM itself was directly measured from the lysate using quantitative LC-MS/MS.
A typical assay was performed using an HCT116 human colon carcinoma cell line which was genetically engineered to delete the MTAP gene (commercially available from Horizon Discovery). This cell line was utilized because it was determined that loss of the MTAP gene predicts sensitivity to MAT2A inhibitors. Cells were plated in 96-well dishes at appropriate cell density. Following 24 hours, cells were then treated with the candidate MAT2A inhibitor. Prior to addition to cells, the compound was first serially diluted in 100% DMSO, typically as a 3-fold serial dilution starting at 500× top dose with 10 dose points including DMSO only control. Compound was then transferred to a working stock plate in cell culture media by adding 5 μL of compound in DMSO to 495 μL of cell culture media. This working stock was then added to cells via a further 5-fold dilution, by adding 25 μL of working stock to 100 μL of cells in culture media. Following compound addition, cells were incubated at 37° C./5% CO2 for 72 hrs.
To quantitate SAM levels following compound treatment, cells were gently washed once in ammonium carbonate buffer (75 mM at pH 7.4), placed on dry ice, and lysed with metabolite extraction buffer (80% cold methanol and 20% water (v/v) with acetic acid at 1M final concentration with 200 ng/mL deuterated d3-SAM as internal control). Following centrifugation at 4° C. at 3,200 rpm for 30 minutes, the supernatant was collected and stored at −80° C. until analysis by Liquid Chromatography with tandem Mass Spectrometry (LC-MS/MS). LC-MS/MS analysis was performed using an API6500 Mass Spectrometer (Sciex, Framingham, Mass., USA) operating in positive ion spray mode and equipped with a Waters UPLC Acquity (Waters, Milford, Mass., USA) BEH Amide column. Multiple Reaction Monitoring data was acquired for SAM and the d3-SAM standard, using a mass transition pair at m/z 399.2→250.1 and 402.2→250.1, respectively. In a typical LC-MS/MS analysis, the initial flow rate was 0.5 ml/min of 25% mobile phase A (acetonitrile and water at 5:95 (v/v) with 1% formic acid and 10 mM ammonium acetate) and 75% mobile phase B (acetonitrile and water at 95:5 (v/v) with 1% formic acid and 10 mM ammonium acetate), 0.2-0.5 minutes with 75%-35% mobile phase B, 25%-65% mobile phase A, at 0.5 min 65% mobile phase A and 35% mobile phase B, 1.0-1.1 minutes with 35%-75% mobile phase B, 65%-25% mobile phase A, at 1.1 min 25% mobile phase A and 75% mobile phase B with a total run time of 1.5 minutes.
Specific compounds disclosed herein were tested in the foregoing assay and they were determined to inhibit SAM with an IC50. See, Table 1 below.

[3] = system: HCT116 MTAP−/−; experiment: Inhibition of cellular proliferation, 4 days, Cell Titer Glo, HCT116 MTAP−/−; assay type: cell-based; settings: Homo sapiens, HCT-116, 96 h, IC50 bin with Max Inh., read-out: 4 Day Relative Growth Inhibition (MTAP −/−)
Method: (§1) Test compound impact on cancer cell growth was assessed by treating cancer cells with compound for 4 days and then measuring proliferation using an ATP-based cell proliferation readout (Cell Titer Glo, Promega Corporation).
(§2) In a typical assay an isogenic pair of HCT116 human colon carcinoma cell lines which vary only in MTAP deletion status (HCT116 MTAP+/+ and HCT116 MTAP−/−) were plated in 96-well dishes at appropriate cell density. Following 24 hours, cells were then treated with the candidate MAT2A inhibitor. Prior to addition to cells, the compound was first serially diluted in 100% DMSO, typically as a 3-fold serial dilution starting at 500× top dose with 10 dose points including DMSO only control. Compound was then transferred to a working stock plate in cell culture media by adding 5 μL of compound in DMSO to 495 μL of cell culture media. This working stock was then added to cells via a further 5-fold dilution, by adding 25 μL of working stock to 100 μL of cells in culture media. Following compound addition, cells were incubated at 37° C./5% CO2 for 4 days.
(§3) To measure inhibition of cellular proliferation, cells were allowed to equilibrate to room temperature for 30 minutes, and were then treated with 125 μL of Cell Titer Glo reagent. The plate was then covered with aluminum foil and shaken for 15 minutes to ensure complete mixing and full cell lysis. Luminescent signal was then measured using a plate-based luminometer Veritas version 1.9.2 using ATP standard curve to confirm assay reproducibility from run to run. This luminescence measure was converted to a proliferation index by subtracting from each data point the ATP luminescence signal measured from a bank (no cells) well and dividing by the ATP luminescence signal measured in 0.2% DMSO control well adjusted for signal in blank well. Compound activity was then represented as a percentage change in proliferation relative to a within-plate DMSO control against log 10 of compound concentration in molar (M) units.
(§4) Specific compounds disclosed herein were tested in the foregoing assay and they were determined to inhibit cellular proliferation with an IC50. See, Table 1 below.

[4] = system: HCT116 MTAP+/+; experiment: Inhibition of cellular proliferation, 4 days, Cell Titer Glo, HCT116 MTAP+/+; assay type: cell-based; settings: Homo sapiens, HCT-116, 96 h, IC50 bin with Max Inh., read-out: 4 Day Relative Growth Inhibition (MTAP +/+)
Method: as §1, §2, §3, §4

T1 sequence (P31153 whole entry): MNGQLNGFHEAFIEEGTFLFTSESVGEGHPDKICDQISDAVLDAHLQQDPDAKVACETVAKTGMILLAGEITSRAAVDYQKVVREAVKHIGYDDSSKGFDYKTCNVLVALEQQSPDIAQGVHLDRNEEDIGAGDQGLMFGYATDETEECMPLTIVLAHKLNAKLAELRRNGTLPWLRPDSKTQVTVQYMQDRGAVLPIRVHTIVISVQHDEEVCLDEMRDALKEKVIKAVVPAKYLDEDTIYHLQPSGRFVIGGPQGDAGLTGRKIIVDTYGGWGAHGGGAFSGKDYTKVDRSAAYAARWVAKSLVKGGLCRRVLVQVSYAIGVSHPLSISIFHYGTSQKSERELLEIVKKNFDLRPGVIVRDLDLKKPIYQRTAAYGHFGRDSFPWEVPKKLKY

Row | SMILES | pIC50 [1] | pIC50 [2] | pIC50 [3] | pIC50 [4]
1 | Cc1ccc(-c2c(=O)n(-c3ccc4nn(C)cc4c3)nc3c(C#N)cn(CCC(F)(F)F)c23)cn1 [Example 108, 2-(2-methyl-2H-indazol-5-yl)-4-(6-methylpyridin-3-yl)-3-oxo-5-(3,3,3-trifluoropropyl)-3,5-dihydro-2H-pyrrolo[3,2-c]pyridazine-7-carbonitrile] | 6.00 to 7.00 | 6.00 to 7.00 | < 6.00 | 6.00 to 7.00
2 | CNC(=O)c1cn(CC2CC2)c2c(-c3ccc(OC)cc3)c(=O)n(-c3ccc4nn(C)cc4c3)nc12 [Example 176, 5-(cyclopropylmethyl)-4-(4-methoxyphenyl)-N-methyl-2-(2-methyl-2H-indazol-5-yl)-3-oxo-3,5-dihydro-2H-pyrrolo[3,2-c]pyridazine-7-carboxamide] | > 7.00 | > 7.00 | > 7.00 | 6.00 to 7.00
3 | Cn1cc(-n2nc3ccn(CC4CC4)c3c(-c3ccc(OC(F)F)cc3)c2=O)ccc1=O [Example 223, 5-(cyclopropylmethyl)-4-(4-(difluoromethoxy)phenyl)-2-(1-methyl-6-oxo-1,6-dihydropyridin-3-yl)-2,5-dihydro-3H-pyrrolo[3,2-c]pyridazin-3-one] | > 7.00 | > 7.00 | 6.00 to 7.00 | 6.00 to 7.00
4 | Cn1cc2cc(-n3nc4c(C(N)=O)cn(CC5CC5)c4c(-c4ccc(Cl)cc4)c3=O)ccc2n1 [Example 170, 4-(4-chlorophenyl)-5-(cyclopropylmethyl)-2-(2-methyl-2H-indazol-5-yl)-3-oxo-3,5-dihydro-2H-pyrrolo[3,2-c]pyridazine-7-carboxamide] | > 7.00 | > 7.00 | > 7.00 | < 6.00
5 | Cn1cc2cc(-n3nc4[nH]c(=O)n(CC5CC5)c4c(-c4ccc(C5CC5)cc4)c3=O)ccc2n1 [Example 204, 5-(cyclopropylmethyl)-4-(4-cyclopropylphenyl)-2-(2-methyl-2H-indazol-5-yl)-2,7-dihydro-3H-imidazo[4,5-c]pyridazine-3,6(5H)-dione] | > 7.00 | > 7.00 | > 7.00 | < 6.00

Next, values leading:

Row | pIC50 [1] | pIC50 [2] | pIC50 [3] | pIC50 [4] | SMILES
6 | > 7.00 | > 7.00 | > 7.00 | < 6.00 | C[C@H](O)c1cn(CC2CC2)c2c(-c3ccc(C4CC4)nc3)c(=O)n(-c3ccc4nn(C)cc4c3)nc12 [Example 250, (S)-5-(cyclopropylmethyl)-4-(6-cyclopropylpyridin-3-yl)-7-(1-hydroxyethyl)-2-(2-methyl-2H-indazol-5-yl)-2,5-dihydro-3H-pyrrolo[3,2-c]pyridazin-3-one]
7 | > 7.00 | 6.00 to 7.00 | 6.00 to 7.00 | < 6.00 | [2H]C([2H])([2H])Oc1ccc(-n2nc3c(C#N)cn(CC4CC4)c3c(-c3ccc(C(F)F)nc3)c2=O)cc1 [Example 137, 5-(cyclopropylmethyl)-4-(6-(difluoromethyl)pyridin-3-yl)-2-(4-(methoxy-d3)phenyl)-3-oxo-3,5-dihydro-2H-pyrrolo[3,2-c]pyridazine-7-carbonitrile]
8 | > 7.00 | > 7.00 | > 7.00 | 6.00 to 7.00 | Cn1cc2cc(-n3nc4cnn(CC5CC5)c4c(-c4ccc(OC(F)F)cc4)c3=O)ccc2n1 [Example 218, 1-(cyclopropylmethyl)-7-(4-(difluoromethoxy)phenyl)-5-(2-methyl-2H-indazol-5-yl)-1,5-dihydro-6H-pyrazolo[4,3-c]pyridazin-6-one]
9 | > 7.00 | > 7.00 | > 7.00 | < 6.00 | Cn1cc2cc(-n3nc4c(C#N)cn(CC5CC5)c4c(-c4ccc(OC(F)F)nc4)c3=O)ccc2n1 [Example 114, 5-(cyclopropylmethyl)-4-(6-(difluoromethoxy)pyridin-3-yl)-2-(2-methyl-2H-indazol-5-yl)-3-oxo-3,5-dihydro-2H-pyrrolo[3,2-c]pyridazine-7-carbonitrile]
10 | > 7.00 | > 7.00 | > 7.00 | 6.00 to 7.00 | Cc1ccc(-c2c(=O)n(-c3ccc4nn(C)cc4c3)nc3c(F)cn(CC4CC4)c23)cn1 [Example 237, 5-(cyclopropylmethyl)-7-fluoro-2-(2-methyl-2H-indazol-5-yl)-4-(6-methylpyridin-3-yl)-2,5-dihydro-3H-pyrrolo[3,2-c]pyridazin-3-one]
11 | > 7.00 | > 7.00 | > 7.00 | < 6.00 | Cn1cc2cc(-n3nc4c(F)cn(CC5CC5)c4c(-c4ccc(C5CC5)nc4)c3=O)ccc2n1 [Example 235, 5-(cyclopropylmethyl)-4-(6-cyclopropylpyridin-3-yl)-7-fluoro-2-(2-methyl-2H-indazol-5-yl)-2,5-dihydro-3H-pyrrolo[3,2-c]pyridazin-3-one]
12 | > 7.00 | > 7.00 | 6.00 to 7.00 | < 6.00 | Cn1cc2cc(-n3nc4[nH]c(=O)n(CC5CC5)c4c(-c4ccc(Cl)cc4)c3=O)ccc2n1 [Example 205, 4-(4-chlorophenyl)-5-(cyclopropylmethyl)-2-(2-methyl-2H-indazol-5-yl)-2,7-dihydro-3H-imidazo[4,5-c]pyridazine-3,6(5H)-dione]
